{"source": "paper PMC8402619", "about": "(Viruses, 2021)", "key": {"CYP2C8": {"molecular_target": "T1, CYP2C8 (Homo sapiens, UniProt P10632)", "T1 sequence (P10632 1-490)": "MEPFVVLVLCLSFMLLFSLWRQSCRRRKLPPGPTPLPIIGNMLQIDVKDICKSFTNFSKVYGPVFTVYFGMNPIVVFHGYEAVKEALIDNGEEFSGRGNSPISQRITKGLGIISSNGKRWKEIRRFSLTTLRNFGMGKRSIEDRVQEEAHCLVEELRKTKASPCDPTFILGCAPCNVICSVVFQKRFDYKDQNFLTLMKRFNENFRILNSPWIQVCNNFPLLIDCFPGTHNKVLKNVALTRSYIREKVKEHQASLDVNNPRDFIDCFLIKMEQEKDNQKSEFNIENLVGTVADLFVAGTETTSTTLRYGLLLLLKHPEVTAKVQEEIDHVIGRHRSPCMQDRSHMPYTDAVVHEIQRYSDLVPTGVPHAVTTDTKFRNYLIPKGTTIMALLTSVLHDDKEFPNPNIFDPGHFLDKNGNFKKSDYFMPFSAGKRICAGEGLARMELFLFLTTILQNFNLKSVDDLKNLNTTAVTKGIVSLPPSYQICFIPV", "assay": "Time-dependent CYP inhibition in pooled human liver microsomes", "type": "in vitro ADME"}, "[1]": {"assay": "Distribution between red blood cells and plasma in human blood", "type": "in vitro ADME"}, "OATP1B1": {"molecular_target": "T2, OATP1B1 (Homo sapiens, UniProt Q9Y6L6)", "T2 construct": "host or cells: HEK293", "T2 sequence (Q9Y6L6 1-691)": "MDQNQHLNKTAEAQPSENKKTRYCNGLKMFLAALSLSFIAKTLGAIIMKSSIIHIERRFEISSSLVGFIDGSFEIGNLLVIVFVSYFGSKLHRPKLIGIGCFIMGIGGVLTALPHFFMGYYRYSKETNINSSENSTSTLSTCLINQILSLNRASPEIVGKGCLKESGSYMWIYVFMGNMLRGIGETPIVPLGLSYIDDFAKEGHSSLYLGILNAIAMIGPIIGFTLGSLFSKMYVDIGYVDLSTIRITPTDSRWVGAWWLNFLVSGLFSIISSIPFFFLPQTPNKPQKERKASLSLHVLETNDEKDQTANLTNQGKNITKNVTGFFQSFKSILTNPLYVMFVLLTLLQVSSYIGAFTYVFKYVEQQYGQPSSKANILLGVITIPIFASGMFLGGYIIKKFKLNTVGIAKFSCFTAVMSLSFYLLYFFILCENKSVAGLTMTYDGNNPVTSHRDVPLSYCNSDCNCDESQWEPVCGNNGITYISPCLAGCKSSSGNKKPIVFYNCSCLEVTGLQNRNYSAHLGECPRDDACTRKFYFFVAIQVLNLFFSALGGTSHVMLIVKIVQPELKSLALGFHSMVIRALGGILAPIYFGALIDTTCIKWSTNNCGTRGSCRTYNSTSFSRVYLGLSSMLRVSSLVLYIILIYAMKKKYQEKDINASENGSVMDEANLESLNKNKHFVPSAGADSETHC", "assay": "Inhibition of transporter-mediated probe uptake in HEK293-OATP1B1 cells", "type": "in vitro ADME"}, "[2]": {"assay": "Renal clearance after 1 mg/kg intravenous, monkey", "type": "in vivo, rhesus monkeys", "conditions": "rhesus monkey, 1 mg/kg intravenously"}, "MATE1": {"molecular_target": "T3, MATE1 (Homo sapiens, UniProt Q96FL8)", "T3 construct": "expressed in transfected cells; host or cells: CHO-K1", "T3 sequence (Q96FL8 1-570)": "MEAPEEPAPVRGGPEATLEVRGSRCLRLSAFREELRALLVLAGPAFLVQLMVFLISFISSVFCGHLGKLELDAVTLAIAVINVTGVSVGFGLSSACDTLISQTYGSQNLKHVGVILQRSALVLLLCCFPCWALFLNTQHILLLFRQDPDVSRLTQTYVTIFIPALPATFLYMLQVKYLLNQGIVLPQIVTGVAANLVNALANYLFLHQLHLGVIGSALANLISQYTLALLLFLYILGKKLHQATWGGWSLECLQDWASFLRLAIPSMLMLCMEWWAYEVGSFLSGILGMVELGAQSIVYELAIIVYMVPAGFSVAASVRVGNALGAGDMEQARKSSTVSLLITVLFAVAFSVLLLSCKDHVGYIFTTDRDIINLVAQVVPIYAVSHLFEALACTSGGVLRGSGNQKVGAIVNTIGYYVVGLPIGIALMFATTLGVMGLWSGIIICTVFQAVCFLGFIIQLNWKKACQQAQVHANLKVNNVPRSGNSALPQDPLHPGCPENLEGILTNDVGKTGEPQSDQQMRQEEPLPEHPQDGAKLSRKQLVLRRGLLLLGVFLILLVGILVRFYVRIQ", "assay": "Inhibition of transporter-mediated probe uptake in CHO-K1-MATE1 cells", "type": "in vitro ADME"}, "CYP3A4": {"molecular_target": "CYP3A4 (Homo sapiens, UniProt P08684)", "sequence (P08684 whole entry)": "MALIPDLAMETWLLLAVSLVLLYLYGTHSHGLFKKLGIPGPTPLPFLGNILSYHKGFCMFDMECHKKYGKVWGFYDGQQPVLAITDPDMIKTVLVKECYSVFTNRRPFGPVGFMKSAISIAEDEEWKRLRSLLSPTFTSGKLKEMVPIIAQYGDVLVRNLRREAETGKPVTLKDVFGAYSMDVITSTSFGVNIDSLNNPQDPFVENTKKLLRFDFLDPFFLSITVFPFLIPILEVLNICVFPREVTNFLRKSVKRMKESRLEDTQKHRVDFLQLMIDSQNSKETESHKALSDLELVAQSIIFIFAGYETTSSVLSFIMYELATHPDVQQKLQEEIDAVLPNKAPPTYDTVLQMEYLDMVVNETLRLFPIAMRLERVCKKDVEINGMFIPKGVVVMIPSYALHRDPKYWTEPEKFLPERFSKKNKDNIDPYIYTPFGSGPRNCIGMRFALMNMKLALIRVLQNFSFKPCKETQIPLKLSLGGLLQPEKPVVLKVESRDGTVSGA", "assay": "Reversible CYP inhibition in pooled human liver microsomes", "type": "in vitro ADME"}}}
{"molecule": "C#C[C@]1(CO)O[C@@H](n2cnc3c(N)nc(F)nc32)C[C@@H]1O", "note": "[Islatravir, 4′-Ethynyl-2-fluoro-2′-deoxyadenosine]", "values": [{"measurement": "time-dependent inhibition", "setting": "CYP2C8; CYP2C8, pre-incubation of 10 and 50 µM for up to 30 min", "value": "no time-dependent inhibition"}, {"measurement": "DDI Potential", "setting": "CYP2C8; CYP2C8 time dependent inhibition", "value": "Low risk ^h"}, {"measurement": "IC50", "setting": "CYP2C8; time dependent, CYP2C8, read-out: Islatravir IC50", "value": "> 50", "unit": "µM"}, {"measurement": "concentration dependence of blood:plasma partitioning", "setting": "[1]; 0.01 to 10 µM", "value": "did not exhibit concentration-dependent partitioning"}, {"measurement": "blood plasma ratio at 60 min, 0.1 µM", "setting": "[1]; whole blood, human blood, 0.1 µM, ± standard error, read-out: mean blood:plasma concentration ratio", "value": 1.3}, {"measurement": "IC50", "setting": "OATP1B1; OATP1B1-mediated uptake of pitavastatin, read-out: Islatravir IC50", "value": "> 300", "unit": "µM"}, {"measurement": "Maximum Unbound Inlet Concentration (Iin,max,u) to IC50 Ratio", "setting": "OATP1B1; OATP1B1, 60 mg dose", "value": "<0.035"}, {"measurement": "DDI Potential", "setting": "OATP1B1; OATP1B1 inhibition, FDA, EMA, PMDA guidance", "value": "Low risk"}, {"measurement": "CL renal", "setting": "[2]; plasma and urine, iv, urine 0-24 h", "value": 8.7, "unit": "mL/min/kg"}, {"measurement": "Renal Excretion (% Total Plasma Clearance)", "setting": "[2]", "value": 51, "unit": "%"}, {"measurement": "IC50", "setting": "MATE1; MATE1, metformin uptake, read-out: Islatravir IC50", "value": "> 75", "unit": "µM"}, {"measurement": "Maximum Unbound Plasma Concentration (Imax,u) to IC50 Ratio", "setting": "MATE1; MATE1, 60 mg, Cmax 1.01 µM, fu,p 0.96", "value": "<0.013", "unit": "µM"}, {"measurement": "DDI Potential", "setting": "MATE1; MATE1 inhibition, FDA, EMA, PMDA guidance", "value": "Low risk"}, {"measurement": "DDI Potential", "setting": "CYP3A4; CYP3A4 reversible inhibition, FDA, EMA, PMDA guidance", "value": "Low risk"}, {"measurement": "Maximum Unbound Plasma Concentration (Imax,u) to Ki,u Ratio", "setting": "CYP3A4; CYP3A4 reversible, 60 mg, Cmax 1.01 µM, fu,p 0.96, Ki,u = IC50/2", "value": "<0.010", "unit": "µM"}, {"measurement": "Intestinal Concentration (Igut) to Ki,u Ratio", "setting": "CYP3A4; CYP3A4 reversible, Igut = 60 mg/250 mL = 818 µM", "value": "<8.2", "unit": "µM"}]}
